# In US9296758B2, “2-quinolinyl-acetic acid derivatives as HIV antiviral compounds” (GILEAD SCIENCES, INC., priority 2010, dated 2016):
# Tested on: HIV-IIIb
# Experiment: Test A: Antiviral Assays in MT4 Cells
# Assay type: cell-based
# Conditions: MT-4 cells infected with HIV-IIIb (0.004 m.o.i.), 5 days of incubation, CellTiter-Glo chemiluminescence readout
# Protocol: Test A: Antiviral Assays in MT4 Cells For the antiviral assay utilizing MT-4 cells, 0.4 μL of 189X test concentration of 3-fold serially diluted compound in DMSO was added to 40 μL of cell growth medium (RPMI 1640, 10% FBS, 1% penicillin/Streptomycin, 1% L-Glutamine, 1% HEPES) in each well of 384-well assay plates (10 concentrations) in quadruplicate. 1 mL aliquots of 2×10e6 MT-4 cells are pre-infected for 1 and 3 hrs respectively, @ 37° C. with 25 μL (MT4) or of either cell growth medium (mock-infected) or a fresh 1:250 dilution of an HIV-IIIb concentrated ABI stock (0.004 m.o.i. for MT4 cells). Infected and uninfected cells are diluted in cell growth medium and 35 uL of 2000 (for MT4) cells is added to each well of the assay plates. Assay plates were then incubated in a 37° C. incubator. After 5 days of incubation, 25 μl of 2× concentrated CellTiter-Glo™ Reagent (catalog #G7573, Promega Biosciences, Inc., Madison, Wis.) was added to each well of the assay plate. Cell lysis was carried out by incubating at room temperature for 2-3 min and then chemiluminescence was read using the Envision reader (PerkinElmer).
# [1] = Human immunodeficiency virus 1, IIIB, MT4, 120 h
Compound,EC50 [1] [nM],EC50 [nM]
"Cc1cc2nc(-c3ccc(Cl)cc3)ccc2c(-c2ccc(Cl)cc2)c1[C@H](OC(C)(C)C)C(=O)O [Compound 27, (S)-2-(2,5-bis(4-chlorophenyl)-7-methylquinolin-6-yl)-2-tert-butoxyacetic acid]",23,
"Cc1cc2nc(C3CC3)ccc2c(-c2ccc(Cl)cc2)c1[C@H](OC(C)(C)C)C(=O)O [Compound 28, (S)-2-tert-butoxy-2-(5-(4-chlorophenyl)-2-cyclopropyl-7-methylquinolin-6-yl)acetic acid]",43,
"Cc1cc2nc(N3CCOCC3)ccc2c(-c2ccc(Cl)cc2)c1[C@H](OC(C)(C)C)C(=O)O [Compound 29, (S)-2-tert-Butoxy-2-(5-(4-chlorophenyl)-7-methyl-2-morpholinoquinolin-6-yl)acetic acid]",939,
"Cc1cc2nc(NC3CC3)ccc2c(-c2ccc(Cl)cc2)c1[C@H](OC(C)(C)C)C(=O)O [Compound 30, (S)-2-tert-butoxy-2-(5-(4-chlorophenyl)-2-(cyclopropylamino)-7-methylquinolin-6-yl)acetic acid]",153,
"CNc1ccc2c(-c3ccc(Cl)cc3)c([C@H](OC(C)(C)C)C(=O)O)c(C)cc2n1 [Compound 31, (S)-2-tert-butoxy-2-(5-(4-chlorophenyl)-7-methyl-2-(methylamino)quinolin-6-yl)acetic acid]",105,
"Cc1cc2nc(N(C)C)ccc2c(-c2ccc(Cl)cc2)c1[C@H](OC(C)(C)C)C(=O)O [Compound 32, (S)-2-tert-Butoxy-2-(5-(4-chlorophenyl)-2-(dimethylamino)-7-methylquinolin-6-yl)acetic acid]",108,
"Cc1cc2nc(NCc3ccncc3)ccc2c(-c2ccc(Cl)cc2)c1[C@H](OC(C)(C)C)C(=O)O [Compound 33, (S)-2-tert-Butoxy-2-(5-(4-chlorophenyl)-7-methyl-2-(pyridin-4-ylmethylamino)quinolin-6-yl)acetic acid]",95,
"Cc1cc2nc(NCCN3CCOCC3)ccc2c(-c2ccc(Cl)cc2)c1[C@H](OC(C)(C)C)C(=O)O [Compound 34, (S)-2-tert-Butoxy-2-(5-(4-chlorophenyl)-7-methyl-2-(2-morpholinoethylamino)quinolin-6-yl)acetic acid]",266,
"COCCOCCCNc1ccc2c(-c3ccc(Cl)cc3)c([C@H](OC(C)(C)C)C(=O)O)c(C)cc2n1 [Compound 35, (S)-2-tert-butoxy-2-(5-(4-chlorophenyl)-2-(3-(2-methoxyethoxy)propylamino)-7-methylquinolin-6-yl)acetic acid]",157,
"Cc1cc2nc(C(C)(C)C)ccc2c(-c2ccc3c4c(ccnc24)CCO3)c1[C@H](OC(C)(C)C)C(=O)O [Compound 36, (S)-2-tert-butoxy-2-((R)-2-tert-butyl-5-(2,3-dihydropyrano[4,3,2-de]quinolin-7-yl)-7-methylquinolin-6-yl)acetic acid]",20,
"Cc1cc2nc(C#Cc3ccccc3)ccc2c(-c2ccc(Cl)cc2)c1[C@H](OC(C)(C)C)C(=O)O [Compound 37A, (S)-2-tert-butoxy-2-(5-(4-chlorophenyl)-7-methyl-2-(phenylethynyl)quinolin-6-yl)acetic acid]",36,
"Cc1cc2nc(CCc3ccccc3)ccc2c(-c2ccc(Cl)cc2)c1[C@H](OC(C)(C)C)C(=O)O [Compound 37B, (S)-2-tert-butoxy-2-(5-(4-chlorophenyl)-7-methyl-2-phenethylquinolin-6-yl)acetic acid]",46,
"Cc1cc2nc(C#CC3CC3)ccc2c(-c2ccc(Cl)cc2)c1[C@H](OC(C)(C)C)C(=O)O [Compound 38, (S)-2-tert-butoxy-2-(5-(4-chlorophenyl)-2-(cyclopropylethynyl)-7-methylquinolin-6-yl)acetic acid]",68,
"Cc1cc2nc(CCC3CC3)ccc2c(-c2ccc(Cl)cc2)c1[C@H](OC(C)(C)C)C(=O)O [Compound 39, (S)-2-tert-butoxy-2-(5-(4-chlorophenyl)-2-(2-cyclopropylethyl)-7-methylquinolin-6-yl)acetic acid]",11,
"Cc1cc2nc(C(C)C)ccc2c(-c2ccc3c4c(ccnc24)CCO3)c1[C@H](OC(C)(C)C)C(=O)O [Compound 46, (S)-2-tert-Butoxy-2-((R)-5-(2,3-dihydropyrano[4,3,2-de]quinolin-7-yl)-2-isopropyl-7-methylquinolin-6-yl)acetic acid]",20,
"CCC(C)c1ccc2c(-c3ccc4c5c(ccnc35)CCO4)c([C@H](OC(C)(C)C)C(=O)O)c(C)cc2n1 (stereo partly drawn) [Compound 49, (2S)-2-tert-Butoxy-2-((5R)-2-sec-butyl-5-(2,3-dihydropyrano[4,3,2-de]quinolin-7-yl)-7-methylquinolin-6-yl)acetic acid]",27,

Compound,EC50 [1] [nM],EC50 [nM]
"Cc1cccc(C)c1-c1ccc2c(-c3ccc4c5c(ccnc35)CCO4)c([C@H](OC(C)(C)C)C(=O)O)c(C)cc2n1 [Compound 54, (S)-2-tert-Butoxy-2-((R)-5-(2,3-dihydropyrano[4,3,2-de]quinolin-7-yl)-2-(2,6-dimethylphenyl)-7-methylquinolin-6-yl)acetic acid]",87,
"Cc1cc2c(ccc(=O)n2-c2ccc(Cl)cc2)c(-c2ccc(Cl)cc2)c1[C@H](OC(C)(C)C)C(=O)O [Compound 59, (S)-2-(1,5-Bis(4-chlorophenyl)-7-methyl-2-oxo-1,2-dihydroquinolin-6-yl)-2-tert-butoxyacetic acid]",321,
"Cc1cc2c(ccc3nc(C(C)C)cn32)c(-c2ccc3c4c(ccnc24)CCO3)c1[C@H](OC(C)(C)C)C(=O)O [Compound 60, (S)-2-tert-Butoxy-2-((R)-6-(2,3-dihydropyrano[4,3,2-de]quinolin-7-yl)-2-isopropyl-8-methylimidazo[1,2-a]quinolin-7-yl)acetic acid]",305,
"Cc1cc2c(ccc3nccn32)c(-c2ccc(Cl)cc2)c1[C@H](OC(C)(C)C)C(=O)O [Compound 62, (S)-2-tert-Butoxy-2-(6-(4-chlorophenyl)-8-methylimidazo[1,2-a]quinolin-7-yl)acetic acid]",72,
"Cc1cc2c(ccc3nncn32)c(-c2ccc(Cl)cc2)c1[C@H](OC(C)(C)C)C(=O)O [Compound 63, (S)-2-tert-butoxy-2-(6-(4-chlorophenyl)-8-methyl-[1,2,4]triazolo[4,3-a]quinolin-7-yl)acetic acid]",183,
"Cc1cc2c(ccc3nnnn32)c(-c2ccc(Cl)cc2)c1[C@H](OC(C)(C)C)C(=O)O [Compound 64, (S)-2-tert-butoxy-2-(6-(4-chlorophenyl)-8-methyltetrazolo[1,5-a]quinolin-7-yl)acetic acid]",290,
"Cc1cc2nc(OCc3ccccc3)ccc2c(-c2ccc(Cl)cc2)c1[C@H](OC(C)(C)C)C(=O)O [Compound 65A, (S)-2-(2-(benzyloxy)-5-(4-chlorophenyl)-7-methylquinolin-6-yl)-2-tert-butoxyacetic acid]",85,
"Cc1cc2c(ccc(=O)n2Cc2ccccc2)c(-c2ccc(Cl)cc2)c1[C@H](OC(C)(C)C)C(=O)O [Compound 65B, (S)-2-(1-benzyl-5-(4-chlorophenyl)-7-methyl-2-oxo-1,2-dihydroquinolin-6-yl)-2-tert-butoxyacetic acid]",55,
"COc1ccc2c(-c3ccc(Cl)cc3)c([C@H](OC(C)(C)C)C(=O)O)c(C)cc2n1 [Compound 66, (S)-2-tert-butoxy-2-(5-(4-chlorophenyl)-2-methoxy-7-methylquinolin-6-yl)acetic acid]",297,
"Cc1cc2c(ccc(=O)n2C)c(-c2ccc(Cl)cc2)c1[C@H](OC(C)(C)C)C(=O)O [Compound 67, (S)-2-tert-butoxy-2-(5-(4-chlorophenyl)-1,7-dimethyl-2-oxo-1,2-dihydroquinolin-6-yl)acetic acid]",273,
"Cc1cc2nc(-c3cccs3)ccc2c(-c2ccc3c4c(ccnc24)CCO3)c1[C@H](OC(C)(C)C)C(=O)O [Compound 69, (S)-2-tert-butoxy-2-((R)-5-(2,3-dihydropyrano[4,3,2-de]quinolin-7-yl)-7-methyl-2-(thiophen-2-yl)quinolin-6-yl)acetic acid]",,82
"Cc1cc2nc(-c3ccn[nH]3)ccc2c(-c2ccc(Cl)cc2)c1[C@H](OC(C)(C)C)C(=O)O [Compound 70, (S)-2-tert-Butoxy-2-(5-(4-chlorophenyl)-7-methyl-2-(1H-pyrazol-5-yl)quinolin-6-yl)acetic acid]",206,
"Cc1cc2nc(-c3ccncc3)ccc2c(-c2ccc(Cl)cc2)c1[C@H](OC(C)(C)C)C(=O)O [Compound 73, (S)-2-tert-butoxy-2-(5-(4-chlorophenyl)-7-methyl-2-(pyridin-4-yl)quinolin-6-yl)acetic acid]",247,
"Cc1cc2nc(-c3cccnc3)ccc2c(-c2ccc(Cl)cc2)c1[C@H](OC(C)(C)C)C(=O)O [Compound 74, (S)-2-tert-butoxy-2-(5-(4-chlorophenyl)-7-methyl-2-(pyridin-3-yl)quinolin-6-yl)acetic acid]",92,
"Cc1cc2nc(-c3cscn3)ccc2c(-c2ccc(Cl)cc2)c1[C@H](OC(C)(C)C)C(=O)O [Compound 76, (S)-2-tert-butoxy-2-(5-(4-chlorophenyl)-7-methyl-2-(thiazol-4-yl)quinolin-6-yl)acetic acid]",267,
